Here are results for eight compounds from patent US10174078B2, “Keratan sulfate specific transporter molecules” (PHI PHARMA SA, priority 2014, dated 2019).

Square brackets hold non-standard residues; d marks the D form. Ends that are not written are not given here. Peptide text beside a SMILES is read from it. 3'AdT = not defined here

Data set [1] concerns keratan-sulfate (KS). Put plainly: modified ELISA: binding of peptides to plate-coated keratan-sulfate. To be noted: plates coated with 1 mg/ml KS, 1 mg/ml peptide, 1 hour at room temperature. How it is done: The binding of the seven-mer peptides of the invention to KS as predicted by the models, in particular, as compared to the binding to other proteoglycans was tested using a modified ELISA protocol. ELISA plates were coated overnight with 1 mg/ml of heparin sulfate (HS), chondroitin-4-sulfate (C4S), chondroitin-6-sulfate (C6S) or keratan-sulfate (KS) in PBS. The wells were then washed with PBS and incubated for 1 hour at room temperature with 1 mg/ml of an exemplary peptide of the invention having the sequence RYKvRIK (“RYK-KS”; SEQ ID NO:7) or a standard TAT peptide. The plates were then thoroughly washed with PBS and subsequently photographed with a LUMASCOPE™ luminescent microscope. Images were then quantified using the ImageJ software (FIG. 4).
The same modified ELISA protocol was used to examine the impact of modifying the freely-selectable positions 2, 4 and 6 on the specific binding to KS.
The impact of sequence variation on specific binding was also investigated with select peptides using the above described modified ELISA.

Data set [2] can be described thus: estimation of in vivo stability: incubation of peptides with fetal calf serum. To be noted: 37° C.; for degradation in fetal calf serum: 6 hr; for remaining at 6 h: fetal calf serum, read-out: stable at 6 hours. The format is in vitro ADME. Here is the method:
In vivo stability was estimated by mixing peptides with fetal calf serum and incubating at 37° C. for 6 hr. Samples were tested at both 0 and 6 hours.

In data set [3] the test system is MDCK cells. Put plainly: viability of MDCK cultures by trypan blue exclusion after 96 hour incubation with BAM-conjugate. To be noted: 0.5 μM to 10 μM tested. Type of data set: cell-based. How it is done:
The activity of peptides of the invention as targeting moieties was tested in vitro in preliminary studies using cells lines expressing KS. The nucleoside analog 3′ amino deoxythymidine (3′AdT) was conjugated to the amino-terminus of the peptide “RYRI” (RYKvRlK (SEQ ID NO:7)) using a single D-Glu residue (3′AdT-e-RYRI).
Confluent cultures of MDCK were passaged at 1/20 dilution and exponentionally growing cells were incubated for 96 hours with concentrations of the nucleoside analog conjugates ranging from 0.5 μM to 10 μM. Viability was subsequently assessed using trypan blue exclusion.

RYKvFIKPRh (RYK[dV]FIKPR[dH]): the “binding to KS” value in data set [1] is “eliminated binding activity”. For the compound RRRRRRRRR [pure arginine 9-mer], the “binding to KS” value in data set [1] was “increases in binding that were likely non-selective”. Regarding `CC[C@H](C)[C@H](NC(=O)[C@H](CCCNC(=N)N)NC(=O)[C@H](NC(=O)[C@H](CCCCN)NC(=O)[C@H](Cc1ccc(O)cc1)NC(=O)[C@@H](N)CCCNC(=N)N)C(C)C)C(=O)N[C@@H](CCCCN)C(=O)O` [RYK-KS, RYKvRIK] (HELM PEPTIDE1{R.Y.K.[dV].R.I.K}$$$$V2.0; N-terminus and C-terminus assumed), in data set [2], the “degradation in fetal calf serum” value is given as “no degradation” and the remaining at 6 h is 100%.

Turning to `CC[C@H](C)[C@H](N)C(=O)N[C@@H](CCCNC(=N)N)C(=O)N[C@H](C(=O)N[C@H](CCCCN)C(=O)N[C@H](C(=O)N[C@H](CCCNC(=N)N)C(=O)N[C@H](C(=O)N[C@@H](CCCCN)C(=O)O)[C@@H](C)CC)[C@@H](C)CC)[C@@H](C)CC` [IRIkIrIK] (HELM PEPTIDE1{I.R.I.[dK].I.[dR].I.K}$$$$V2.0; N-terminus and C-terminus assumed), in data set [2], the “degradation in fetal calf serum” value was “no degradation” and the remaining at 6 h is 100%. Regarding “D-linked conjugate: 3′AdT conjugated to the amino-terminus of the peptide RYRI (RYKvRIK) by a single D-Glu residue ({3'AdT}-[dE]RYK[dV]RIK; reading uncertain; also: printed as RYKvRIK)”, in data set [3], the “concentrations with substantial effects on viability” value is not below 0.5 µM. Consider “RYKvRPKYF (RYK[dV]RPKYF) [control peptide with proline at position 6]”, for which the “binding to KS” value in data set [1] is recorded as “eliminated binding activity”.

Regarding RPKHRPK [RPKHRPK], the “degradation in fetal calf serum” value in data set [2] is listed as “completely degraded”.

On to “RKKRRQRR (Artificial TAT control peptide) [standard TAT peptide]”, for which the “binding to KS” value in data set [1] was “increases in binding that were likely non-selective”.
